What was measured:
[1] = target: ATP-dependent translocase ABCB1 (Homo sapiens, UniProt P08183); test: Calcein-AM Assay
Procedure: (§1) MDCK-MDR1 or MDCK-MRP1 cells (50,000 cells per well) were seeded into black CulturePlate (96-well plate) with 100 μL medium and allowed to become confluentovernight. Hundred microliters of test compounds was solubilized in culture medium and added to monolayers. 96/wells plate was incubated at 37 °C for 30 min. Calcein-AM was added in 100 μL of phosphate-buffered saline (PBS) to yield a final concentration of 2.5 μm, and plate was incubated for 30 min. Each well was washed three times with ice-cold PBS.

[2] = target: Multidrug resistance-associated protein 1 (Homo sapiens, UniProt P33527); test: Calcein-AM Assay
Sequence of Multidrug resistance-associated protein 1 (P33527 whole entry): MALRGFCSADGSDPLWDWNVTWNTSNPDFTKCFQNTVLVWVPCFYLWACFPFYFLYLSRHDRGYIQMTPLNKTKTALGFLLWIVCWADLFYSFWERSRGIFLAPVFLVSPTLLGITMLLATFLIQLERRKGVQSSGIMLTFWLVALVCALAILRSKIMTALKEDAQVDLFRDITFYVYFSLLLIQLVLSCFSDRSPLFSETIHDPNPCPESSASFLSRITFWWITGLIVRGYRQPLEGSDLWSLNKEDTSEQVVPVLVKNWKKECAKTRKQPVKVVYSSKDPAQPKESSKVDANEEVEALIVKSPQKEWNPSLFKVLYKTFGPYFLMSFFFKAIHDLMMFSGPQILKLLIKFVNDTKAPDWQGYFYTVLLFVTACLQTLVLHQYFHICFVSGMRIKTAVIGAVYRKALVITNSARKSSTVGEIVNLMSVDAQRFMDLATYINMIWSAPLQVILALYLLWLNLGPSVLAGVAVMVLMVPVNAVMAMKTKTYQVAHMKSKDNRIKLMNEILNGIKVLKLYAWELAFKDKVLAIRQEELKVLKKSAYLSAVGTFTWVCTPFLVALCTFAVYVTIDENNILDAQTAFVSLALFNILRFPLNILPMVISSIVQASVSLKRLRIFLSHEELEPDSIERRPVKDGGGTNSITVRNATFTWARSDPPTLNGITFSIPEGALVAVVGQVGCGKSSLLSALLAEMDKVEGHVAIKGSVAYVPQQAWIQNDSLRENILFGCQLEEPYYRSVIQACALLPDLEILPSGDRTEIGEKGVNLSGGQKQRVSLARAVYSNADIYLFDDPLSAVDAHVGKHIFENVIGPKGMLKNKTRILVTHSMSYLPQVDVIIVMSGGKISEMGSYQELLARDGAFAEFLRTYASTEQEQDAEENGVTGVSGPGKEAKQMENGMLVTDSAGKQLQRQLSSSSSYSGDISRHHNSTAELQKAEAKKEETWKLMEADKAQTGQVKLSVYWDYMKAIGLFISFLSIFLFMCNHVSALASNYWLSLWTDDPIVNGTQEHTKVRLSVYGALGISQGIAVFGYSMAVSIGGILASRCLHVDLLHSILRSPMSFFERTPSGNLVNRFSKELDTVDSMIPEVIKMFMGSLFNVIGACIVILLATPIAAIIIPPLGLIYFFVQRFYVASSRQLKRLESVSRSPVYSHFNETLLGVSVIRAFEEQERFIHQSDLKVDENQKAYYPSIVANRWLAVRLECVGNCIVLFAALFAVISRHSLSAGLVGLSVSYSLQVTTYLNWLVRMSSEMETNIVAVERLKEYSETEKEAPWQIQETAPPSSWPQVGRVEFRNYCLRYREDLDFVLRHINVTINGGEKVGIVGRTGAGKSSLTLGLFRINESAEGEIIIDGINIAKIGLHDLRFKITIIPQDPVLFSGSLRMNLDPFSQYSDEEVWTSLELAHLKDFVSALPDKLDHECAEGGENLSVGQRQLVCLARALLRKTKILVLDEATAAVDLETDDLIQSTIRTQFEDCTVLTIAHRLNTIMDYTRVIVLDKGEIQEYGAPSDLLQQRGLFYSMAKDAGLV
Procedure: as §1

Sequence of ATP-dependent translocase ABCB1 (P08183 whole entry): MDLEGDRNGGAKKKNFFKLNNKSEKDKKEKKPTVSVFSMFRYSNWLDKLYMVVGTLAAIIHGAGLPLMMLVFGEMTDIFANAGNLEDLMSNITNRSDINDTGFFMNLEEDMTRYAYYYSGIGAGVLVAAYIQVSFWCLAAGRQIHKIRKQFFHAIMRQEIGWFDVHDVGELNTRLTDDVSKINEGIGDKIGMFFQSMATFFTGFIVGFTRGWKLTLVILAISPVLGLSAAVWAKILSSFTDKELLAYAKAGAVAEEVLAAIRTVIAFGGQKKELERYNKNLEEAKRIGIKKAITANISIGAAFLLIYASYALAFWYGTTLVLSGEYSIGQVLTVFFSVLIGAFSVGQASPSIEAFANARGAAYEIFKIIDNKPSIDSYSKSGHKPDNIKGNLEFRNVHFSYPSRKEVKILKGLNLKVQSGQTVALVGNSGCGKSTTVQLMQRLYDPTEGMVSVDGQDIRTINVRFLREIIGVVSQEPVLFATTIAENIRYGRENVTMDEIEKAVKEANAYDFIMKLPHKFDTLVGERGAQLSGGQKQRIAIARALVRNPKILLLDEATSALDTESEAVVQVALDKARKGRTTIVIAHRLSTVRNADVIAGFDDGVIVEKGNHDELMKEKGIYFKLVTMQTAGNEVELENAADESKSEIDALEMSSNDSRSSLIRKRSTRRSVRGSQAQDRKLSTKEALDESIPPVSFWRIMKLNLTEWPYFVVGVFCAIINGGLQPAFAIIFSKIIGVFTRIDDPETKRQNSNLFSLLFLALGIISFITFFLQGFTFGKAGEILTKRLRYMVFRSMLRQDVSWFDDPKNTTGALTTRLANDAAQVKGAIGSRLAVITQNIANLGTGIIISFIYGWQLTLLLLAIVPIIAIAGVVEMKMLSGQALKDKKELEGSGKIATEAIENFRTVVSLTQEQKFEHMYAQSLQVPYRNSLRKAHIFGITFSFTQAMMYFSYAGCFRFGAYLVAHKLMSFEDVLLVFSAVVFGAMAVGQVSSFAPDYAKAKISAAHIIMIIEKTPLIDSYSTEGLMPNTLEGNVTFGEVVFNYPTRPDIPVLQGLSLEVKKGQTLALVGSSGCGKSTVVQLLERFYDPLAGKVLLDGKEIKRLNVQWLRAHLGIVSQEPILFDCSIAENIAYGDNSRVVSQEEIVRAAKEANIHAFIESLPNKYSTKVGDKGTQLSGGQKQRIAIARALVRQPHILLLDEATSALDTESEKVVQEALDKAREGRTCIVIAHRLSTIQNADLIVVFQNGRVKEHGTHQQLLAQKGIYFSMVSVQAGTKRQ

IC50 [1] [µM] | IC50 [2] [µM] | Structure (SMILES)
27 | – | COc1cc(C(=O)Nc2ccc(Br)cc2)cc(OC)c1OC
30.4 | 71 | COc1ccccc1NC(=O)c1ccc(OC)c(OC)c1OC [2,3,4-Trimethoxy-N-(2-methoxy-phenyl)-benzamide (15)]
> 100 | > 100 | COc1ccc(C(=O)Nc2ccccc2)c(OC)c1OC [2,3,4-Trimethoxy-N-phenyl-benzamide (7)]
3.52 | > 100 | COc1ccccc1NC(=O)c1cc(OC)c(OC)cc1OC [2,4,5-Trimethoxy-N-(2-methoxy-phenyl)-benzamide (14)]
21.9 | > 100 | COc1cc(OC)c(C(=O)Nc2ccccc2)cc1OC [2,4,5-Trimethoxy-N-phenyl-benzamide (6)]
47.6 | > 100 | COc1cc(OC)c(C(=O)Nc2ccccc2OC)c(OC)c1 [2,4,6-Trimethoxy-N-(2-methoxy-phenyl)-benzamide (16)]
> 100 | > 100 | COc1cc(OC)c(C(=O)Nc2ccccc2)c(OC)c1 [2,4,6-Trimethoxy-N-phenyl-benzamide (8)]
26.2 | > 100 | COc1ccccc1NC(=O)c1cc(OC)c(OC)c(OC)c1 [3,4,5-Trimethoxy-N-(2-methoxy-phenyl)-benzamide (13)]
70.7 | > 100 | COc1cc(C(=O)Nc2ccccc2)cc(OC)c1OC [3,4,5-trimethoxy-N-phenylbenzamide (5)]
19.4 | > 100 | COc1ccc(C(=O)Nc2ccc(Br)cc2)c(OC)c1OC [N-(4-Bromo-phenyl)-2,3,4-trimethoxy-benzamide (11)]
9.27 | > 100 | COc1cc(OC)c(C(=O)Nc2ccc(Br)cc2)cc1OC [N-(4-Bromo-phenyl)-2,4,5-trimethoxy-benzamide (10)]
76.2 | > 100 | COc1cc(OC)c(C(=O)Nc2ccc(Br)cc2)c(OC)c1 [N-(4-Bromo-phenyl)-2,4,6-trimethoxy-benzamide (12)]
